Where a SMILES comes first, the peptide text is derived from it. Bridges are numbered along the chain shown (N, C = ends). Roman numbers before positions name the chains, in order. [ ]: non-standard residue; d: D form. hLeu = CC(C)CC[C@H](N)C(=O)O

As a reminder, the IC50 is the concentration needed to halve the response being measured.

In the assay the target is T1, Interleukin-23 receptor (Homo sapiens, UniProt Q5VWK5).
T1 sequence (Q5VWK5 whole entry): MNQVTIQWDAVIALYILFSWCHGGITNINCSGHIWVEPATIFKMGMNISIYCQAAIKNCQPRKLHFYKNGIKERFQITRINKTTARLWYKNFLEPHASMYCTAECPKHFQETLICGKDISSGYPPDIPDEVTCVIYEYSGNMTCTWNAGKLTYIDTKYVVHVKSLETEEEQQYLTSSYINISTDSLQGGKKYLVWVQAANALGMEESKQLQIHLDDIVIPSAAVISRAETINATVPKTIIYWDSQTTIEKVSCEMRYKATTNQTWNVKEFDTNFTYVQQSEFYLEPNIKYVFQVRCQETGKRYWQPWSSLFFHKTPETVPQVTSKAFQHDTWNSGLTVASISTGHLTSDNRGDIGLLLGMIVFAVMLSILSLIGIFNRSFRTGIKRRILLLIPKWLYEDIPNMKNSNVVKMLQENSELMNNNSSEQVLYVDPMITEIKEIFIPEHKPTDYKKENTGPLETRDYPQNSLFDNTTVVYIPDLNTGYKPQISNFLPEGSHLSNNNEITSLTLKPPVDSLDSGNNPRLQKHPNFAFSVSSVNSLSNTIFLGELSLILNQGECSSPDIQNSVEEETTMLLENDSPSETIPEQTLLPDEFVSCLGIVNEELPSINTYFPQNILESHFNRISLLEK
Briefly: Inhibition of interleukin-23 binding to human interleukin-23 receptor incubated for 2 hrs by competitive binding ELISA. For orientation: ELISA stands for enzyme-linked immunosorbent assay.
Turning to `CC(=O)N[C@@H](CS)C(=O)N[C@@H](CCC(N)=O)C(=O)N[C@H](C(=O)N[C@@H](Cc1c[nH]c2ccccc12)C(=O)N[C@@H](CCC(N)=O)C(=O)N[C@@H](CS)C(N)=O)[C@@H](C)O` (Ac-CQTWQC-NH2), the IC50 is more than 30000 nM. The result for `CC(=O)N[C@@H](CS)C(=O)N[C@@H](C)C(=O)N[C@@H](CC(=O)O)C(=O)N[C@@H](Cc1c[nH]c2ccccc12)C(=O)N[C@H](C(=O)N[C@@H](CS)C(=O)N[C@@H](Cc1ccc(O)cc1)C(=O)N[C@@H](Cc1c[nH]c2ccccc12)C(=O)N(C)[C@@H](Cc1cnc[nH]1)C(=O)N[C@H](C(=O)N[C@@H](Cc1ccccc1)C(=O)NCC(=O)NCCOCC(=O)N[C@H](CCCCN)C(N)=O)[C@@H](C)O)C(C)C` reads more than 1000 nM.

`C[C@H](N)C(=O)N[C@@H](CS)C(=O)N[C@@H](CC(=O)O)C(=O)N[C@@H](Cc1c[nH]c2ccccc12)C(=O)N[C@@H](CS)C(=O)N[C@@H](CS)C(=O)N[C@@H](Cc1ccc(O)cc1)C(=O)N[C@@H](Cc1c[nH]c2ccccc12)C(=O)N[C@@H](CS)C(=O)N[C@H](C(=O)N[C@@H](Cc1ccccc1)C(=O)NCC(N)=O)[C@@H](C)O` (H-ACDWCCYWCTFG-NH2) showed an IC50 of more than 1000 nM. The result for `CC(=O)N[C@@H](CS)C(=O)N[C@@H](C)C(=O)N[C@@H](CC(=O)O)C(=O)N[C@@H](Cc1c[nH]c2ccccc12)C(=O)N[C@@H](CCC(=O)O)C(=O)N[C@@H](CS)C(=O)N[C@@H](Cc1ccc(O)cc1)C(=O)N[C@@H](Cc1c[nH]c2ccccc12)C(=O)N[C@@H](Cc1cnc[nH]1)C(=O)N[C@H](C(=O)N[C@@H](Cc1ccccc1)C(=O)NCC(N)=O)[C@@H](C)O` reads more than 1000 nM. In turn, `CC(=O)N[C@@H](CS)C(=O)N[C@@H](C)C(=O)N[C@@H](CC(=O)O)C(=O)N[C@@H](Cc1c[nH]c2ccccc12)C(=O)N[C@H](C(=O)N[C@@H](CS)C(=O)N[C@@H](Cc1ccc(O)cc1)C(=O)N[C@@H](Cc1cccc2ccccc12)C(=O)N[C@@H](Cc1cnc[nH]1)C(=O)NCCOCCC(N)=O)C(C)C` came in with an IC50 of more than 1000 nM. The result for `CC(=O)N[C@@H](CS)C(=O)N[C@@H](C)C(=O)N[C@@H](CC(=O)O)C(=O)N[C@@H](Cc1c[nH]c2ccccc12)C(=O)N[C@H](C(=O)N[C@@H](CS)C(=O)N[C@@H](Cc1ccc(O)cc1)C(=O)N[C@@H](Cc1cccc2ccccc12)C(=O)N[C@@H](Cc1cnc[nH]1)C(=O)NC(C)(C)C(=O)N[C@H](Cc1ccccc1)C(=O)NCC(N)=O)C(C)C` reads more than 1000 nM; that for `CC(=O)N[C@@H](CS)C(=O)N[C@@H](CCCNC(=N)N)C(=O)N[C@H](C(=O)N[C@@H](Cc1c[nH]c2ccccc12)C(=O)N[C@@H](CCC(N)=O)C(=O)N[C@@H](CS)C(=O)N[C@@H](Cc1ccc(O)cc1)C(=O)N[C@@H](Cc1c[nH]c2ccccc12)C(=O)N[C@@H](Cc1cnc[nH]1)C(=O)N[C@@H](CCC(=O)O)C(=O)N[C@@H](Cc1ccc(O)cc1)C(=O)NCC(N)=O)[C@@H](C)O` (Ac-CRTWQCYWHEYG-NH2), less than 500 nM; that for `CC(C)[C@H](NC(=O)[C@H](Cc1ccc(-c2ccccc2)cc1)NC(=O)[C@H](CC(=O)O)NC(=O)[C@H](C)NC(=O)[C@@H](N)CS)C(=O)N[C@@H](CS)C(=O)N[C@@H](Cc1ccc(O)cc1)C(=O)N[C@@H](Cc1c[nH]c2ccccc12)C(=O)N[C@@H](Cc1cnc[nH]1)C(=O)N[C@H](C(=O)N[C@@H](Cc1ccccc1)C(=O)NCC(N)=O)[C@@H](C)O`, more than 1000 nM.

Molecule `CC(=O)N[C@@H](CS)C(=O)N[C@@H](C)C(=O)N[C@@H](CC(=O)O)C(=O)N[C@@H](Cc1c[nH]c2ccccc12)C(=O)N[C@H](C(=O)N[C@H](C(=O)N[C@@H](Cc1ccc(O)cc1)C(=O)N[C@@H](Cc1c[nH]c2ccccc12)C(=O)N[C@@H](Cc1cnc[nH]1)C(=O)N[C@H](C(=O)N[C@@H](Cc1ccccc1)C(=O)NCC(N)=O)[C@@H](C)O)C(C)(C)S)C(C)C` returned an IC50 of 1000 to 10000 nM. Under `CC(=O)N[C@@H](CS)C(=O)N[C@@H](C)C(=O)N[C@@H](CC(=O)O)C(=O)N[C@@H](Cc1c[nH]c2ccccc12)C(=O)N[C@H](C(=O)N[C@@H](CS)C(=O)N[C@@H](Cc1ccc(O)cc1)C(=O)N[C@@H](Cc1c[nH]c2ccccc12)C(=O)N[C@@H](Cc1cnc[nH]1)C(=O)N[C@H](C(=O)N[C@@H](Cc1ccccc1)C(=O)NCC(=O)N[C@@H](C)C(=O)N1CCC[C@H]1C(=O)N[C@H](CCCCN)C(=O)O)[C@@H](C)O)C(C)C` stands 100 to 1000 nM. Under `C[C@@H](O)[C@H](NC(=O)[C@H](CCCNC(=N)N)NC(=O)[C@@H](N)CS)C(=O)N[C@@H](Cc1c[nH]c2ccccc12)C(=O)N[C@@H](CCC(N)=O)C(=O)N[C@@H](CS)C(=O)N[C@@H](Cc1ccc(O)cc1)C(=O)N[C@@H](Cc1c[nH]c2ccccc12)C(=O)N[C@@H](CCCNC(=N)N)C(=O)N[C@@H](CCCCN)C(=O)N[C@@H](Cc1ccccc1)C(=O)NCC(N)=O` (H-CRTWQCYWRKFG-NH2) stands less than 500 nM.

`C[C@@H](O)[C@H](NC(=O)[C@@H]1CCCN1C(=O)[C@@H](N)Cc1ccccc1)C(=O)N[C@@H](Cc1c[nH]c2ccccc12)C(=O)N[C@@H](CCC(=O)O)C(=O)N[C@@H](Cc1c[nH]c2ccccc12)C(=O)N[C@@H](Cc1ccc(O)cc1)C(=O)N[C@@H](Cc1c[nH]c2ccccc12)C(=O)N[C@@H](CSSC[C@H](NC(=O)[C@H](Cc1c[nH]c2ccccc12)NC(=O)[C@H](Cc1ccc(O)cc1)NC(=O)[C@H](Cc1c[nH]c2ccccc12)NC(=O)[C@H](CCC(=O)O)NC(=O)[C@H](Cc1c[nH]c2ccccc12)NC(=O)[C@@H](NC(=O)[C@@H]1CCCN1C(=O)[C@@H](N)Cc1ccccc1)[C@@H](C)O)C(=O)N[C@@H](CC(N)=O)C(=O)N[C@@H](CCCNC(=N)N)C(=O)N[C@@H](CC(=O)O)C(N)=O)C(=O)N[C@@H](CC(N)=O)C(=O)N[C@@H](CCCNC(=N)N)C(=O)N[C@@H](CC(=O)O)C(N)=O` (I: H-FPTWEWYWCNRD-NH2 / II: H-FPTWEWYWCNRD-NH2; disulfide I:9-II:9) registered an IC50 of 1000 to 10000 nM. The result for `CC(=O)NC1CCC/C=C\CCC(C(=O)N[C@@H](Cc2ccc(O)cc2)C(=O)N[C@@H](Cc2c[nH]c3ccccc23)C(=O)N[C@@H](CCCNC(=N)N)C(=O)N[C@@H](CCCCN)C(=O)N[C@@H](Cc2ccccc2)C(=O)NCC(=O)NCCOCC(=O)N[C@H](CCCCN)C(N)=O)NC(=O)[C@H](CCC(N)=O)NC(=O)[C@H](Cc2c[nH]c3ccccc23)NC(=O)[C@H]([C@@H](C)O)NC(=O)[C@H](CCCNC(=N)N)NC1=O` (stereo not given in full) reads 1000 to 10000 nM. The result for `CC(=O)N[C@@H](CS)C(=O)N[C@@H](CCC(N)=O)C(=O)N[C@H](C(=O)NCC(=O)N[C@@H](CCC(N)=O)C(=O)N[C@@H](CS)C(=O)N[C@@H](Cc1ccc(O)cc1)C(=O)N[C@@H](Cc1c[nH]c2ccccc12)C(=O)N[C@@H](CCC(C)C)C(=O)N[C@@H](CCC(=O)O)C(=O)N[C@@H](CC(N)=O)C(=O)NCC(N)=O)[C@@H](C)O` (Ac-CQTGQCYW[hLeu]ENG-NH2) reads more than 10000 nM; that for `CC(=O)N[C@H]1CCSC[C@@H](C(=O)N[C@@H](Cc2ccc(OCCN)cc2)C(=O)N[C@@H](Cc2ccc3ccccc3c2)C(=O)N[C@@](C)(CCCCN)C(=O)N[C@@H](CCC(=O)O)C(=O)N[C@@H](CC(N)=O)C(=O)NCC(N)=O)NC(=O)[C@H](CCC(N)=O)NC(=O)[C@@H]2Cc3ccccc3CN2C(=O)[C@H]([C@@H](C)O)NC(=O)[C@H](CCC(N)=O)NC1=O`, more than 3000 nM.

`CC(C)[C@H](NC(=O)[C@@H]1Cc2ccccc2CN1C(=O)[C@H](CC(=O)O)NC(=O)[C@H](C)NC(=O)[C@@H](N)CS)C(=O)N[C@@H](CS)C(=O)N[C@@H](Cc1ccc(O)cc1)C(=O)N[C@@H](Cc1c[nH]c2ccccc12)C(=O)N[C@@H](Cc1cnc[nH]1)C(=O)N[C@H](C(=O)N[C@@H](Cc1ccccc1)C(=O)NCC(N)=O)[C@@H](C)O` displayed a concentration for half-maximal inhibition (IC50) of more than 1000 nM. The result for `CC(=O)N[C@@H](CS)C(=O)N[C@@H](C)C(=O)N[C@@H](CC(=O)O)C(=O)N[C@@H](Cc1c[nH]c2ccccc12)C(=O)N[C@H](C(=O)N[C@@H](CS)C(=O)N[C@@H](Cc1ccc(O)cc1)C(=O)N[C@@H](Cc1ccc(-c2ccccc2)cc1)C(=O)N[C@@H](Cc1cnc[nH]1)C(=O)N[C@H](C(=O)N[C@@H](Cc1ccccc1)C(=O)NCC(=O)NCCOCC(=O)N[C@H](CCCCN)C(N)=O)[C@@H](C)O)C(C)C` reads more than 1000 nM; that for `CC(=O)N[C@@H](CS)C(=O)N[C@@H](C)C(=O)N[C@H](C(=O)N[C@@H](Cc1c[nH]c2ccccc12)C(=O)N[C@@H](CCC(N)=O)C(=O)N[C@@H](CS)C(=O)N[C@@H](Cc1ccc(O)cc1)C(=O)N[C@@H](Cc1c[nH]c2ccccc12)C(=O)N[C@@H](Cc1cnc[nH]1)C(=O)N[C@@H](CCC(=O)O)C(=O)N[C@@H](Cc1ccc(O)cc1)C(=O)NCC(N)=O)[C@@H](C)O` (Ac-CATWQCYWHEYG-NH2), less than 500 nM; that for `CC(=O)NC1CC/C=C\CCC(C(=O)N[C@@H](Cc2ccc(O)cc2)C(=O)N[C@@H](Cc2c[nH]c3ccccc23)C(=O)N[C@@H](CCCNC(=N)N)C(=O)N[C@@H](CCCCN)C(=O)N[C@@H](Cc2ccccc2)C(=O)NCC(=O)NCCOCC(=O)N[C@H](CCCCN)C(N)=O)NC(=O)[C@H](CCC(N)=O)NC(=O)[C@H](Cc2c[nH]c3ccccc23)NC(=O)[C@H]([C@@H](C)O)NC(=O)[C@H](CCCNC(=N)N)NC1=O` (stereo not given in full), 100 to 1000 nM. In the case of `CCCCCCCC(=O)N[C@H](C(=O)N[C@@H](CCC(N)=O)C(=O)N[C@H](C(=O)N[C@@H](Cc1c[nH]c2ccccc12)C(=O)N[C@@H](CCC(N)=O)C(=O)N[C@H](C(=O)N[C@@H](Cc1ccc(OC)cc1)C(=O)N[C@@H](Cc1ccc2ccccc2c1)C(=O)N[C@@](C)(CCCCN)C(=O)N[C@@H](CCCCNC(C)=O)C(=O)N[C@@H](CC(N)=O)C(=O)NCC(N)=O)C(C)(C)S)[C@@H](C)O)C(C)(C)S`, the IC50 fell in the range of 100 to 1000 nM.

Source of the values: ChEMBL document CHEMBL4417631, “Oral peptide inhibitors of interleukin-23 receptor and their use to treat inflammatory bowel diseases” (2017).
